Test system: P12-Ichikawa
Assay: cell viability relative to DMSO control; higher = less cytotoxic
Settings: 48 h
Procedure, shortened: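 Viability was expressed as a per-plate percentage of DMSO wells, with cell-free wells as background. Leukemia cells (NOMO1 or SEM at 500 cells/well, P12-Ichikawa at 1000 cells/well) were adapted for at least four passages in each medium and seeded in 1536-well plates (5 μl). Library compounds in DMSO were pin-dosed over an 11-point threefold series from 47 μM to 0.79 nM, and CellTiter-Glo One luminescence was read after 48 h at 37°C.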

[1] = HPLM + 10% dialyzed FBS, 0.000781 µM
[2] = HPLM + 10% dialyzed FBS, 0.00234 µM
[3] = HPLM + 10% dialyzed FBS, 0.00702 µM
[4] = HPLM + 10% dialyzed FBS, 0.0211 µM
[5] = HPLM + 10% dialyzed FBS, 0.0632 µM
[6] = HPLM + 10% dialyzed FBS, 0.19 µM
[7] = HPLM + 10% dialyzed FBS, 0.569 µM
[8] = HPLM + 10% dialyzed FBS, 1.71 µM
[9] = HPLM + 10% dialyzed FBS, 5.12 µM
[10] = HPLM + 10% dialyzed FBS, 15.4 µM
[11] = HPLM + 10% dialyzed FBS, 46.1 µM
[12] = RPMI 5 mM glucose + 10% FBS, 0.000781 µM
[13] = RPMI 5 mM glucose + 10% FBS, 0.00234 µM
[14] = RPMI 5 mM glucose + 10% FBS, 0.00702 µM
[15] = RPMI 5 mM glucose + 10% FBS, 0.0211 µM
[16] = RPMI 5 mM glucose + 10% FBS, 0.0632 µM
[17] = RPMI 5 mM glucose + 10% FBS, 0.19 µM
[18] = RPMI 5 mM glucose + 10% FBS, 0.569 µM
[19] = RPMI 5 mM glucose + 10% FBS, 1.71 µM
[20] = RPMI 5 mM glucose + 10% FBS, 5.12 µM
[21] = RPMI 5 mM glucose + 10% FBS, 15.4 µM
[22] = RPMI 5 mM glucose + 10% FBS, 46.1 µM
[23] = RPMI 5 mM glucose + 10% dialyzed FBS, 0.000781 µM
[24] = RPMI 5 mM glucose + 10% dialyzed FBS, 0.00234 µM
[25] = RPMI 5 mM glucose + 10% dialyzed FBS, 0.00702 µM
[26] = RPMI 5 mM glucose + 10% dialyzed FBS, 0.0211 µM
[27] = RPMI 5 mM glucose + 10% dialyzed FBS, 0.0632 µM
[28] = RPMI 5 mM glucose + 10% dialyzed FBS, 0.19 µM
[29] = RPMI 5 mM glucose + 10% dialyzed FBS, 0.569 µM
[30] = RPMI 5 mM glucose + 10% dialyzed FBS, 1.71 µM
[31] = RPMI 5 mM glucose + 10% dialyzed FBS, 5.12 µM
[32] = RPMI 5 mM glucose + 10% dialyzed FBS, 15.4 µM
[33] = RPMI 5 mM glucose + 10% dialyzed FBS, 46.1 µM

| Structure (SMILES) | cell viability [1] | cell viability [2] | cell viability [3] | cell viability [4] | cell viability [5] | cell viability [6] | cell viability [7] | cell viability [8] | cell viability [9] | cell viability [10] | cell viability [11] | cell viability [12] | cell viability [13] | cell viability [14] | cell viability [15] | cell viability [16] | cell viability [17] | cell viability [18] | cell viability [19] | cell viability [20] | cell viability [21] | cell viability [22] | cell viability [23] | cell viability [24] | cell viability [25] | cell viability [26] | cell viability [27] | cell viability [28] | cell viability [29] | cell viability [30] | cell viability [31] | cell viability [32] | cell viability [33] |
| --- | --- | --- | --- | --- | --- | --- | --- | --- | --- | --- | --- | --- | --- | --- | --- | --- | --- | --- | --- | --- | --- | --- | --- | --- | --- | --- | --- | --- | --- | --- | --- | --- | --- |
| CC(C)(C)NC(=O)Nc1cccc(Nc2ncc(F)c(NC(C)(C)CO)n2)c1 | 105% | 110% | 112% | 114% | 118% | 121% | 117% | 120% | 108% | 14.7% | 24.4% | 114% | 118% | 124% | 121% | 129% | 121% | 122% | 132% | 116% | 35.2% | 40.4% | 120% | 117% | 120% | 116% | 124% | 119% | 117% | 119% | 114% | 34.6% | 51% |
| O=C(O)C1(Cc2cccc(Nc3nccs3)n2)CCC(Oc2cccc(Cl)c2F)CC1 (stereo unspecified) | 102% | 111% | 112% | 108% | 115% | 114% | 99.5% | 57.8% | 39.4% | 18.8% | 13.7% | 102% | 116% | 108% | 93.8% | 122% | 111% | 108% | 65.8% | 47.1% | 33.9% | 17.3% | 108% | 116% | 118% | 116% | 116% | 117% | 115% | 68.9% | 65.2% | 33.5% | 31.8% |
| O=c1[nH]c(=O)n([C@H]2C[C@H](O)[C@@H](CO)O2)cc1/C=C/Br | 103% | 126% | 105% | 115% | 102% | 61.2% | 60.8% | 70% | 75.8% | 61.4% | 47.8% | 97.6% | 107% | 103% | 103% | 105% | 110% | 108% | 106% | 107% | 110% | 106% | 92.6% | 104% | 109% | 118% | 112% | 106% | 103% | 108% | 108% | 102% | 100% |
| CC1(C)O[C@@H]2C[C@H]3[C@@H]4C[C@H](F)C5=CC(=O)C=C[C@]5(C)[C@@]4(F)[C@@H](O)C[C@]3(C)[C@]2(C(=O)CO)O1 | 107% | 110% | 99.4% | 83.8% | 71.1% | 56.4% | 69.1% | 60.7% | 52.6% | 62.9% | 53% | 106% | 99.4% | 96.4% | 78.7% | 55.4% | 53.2% | 50.2% | 53% | 51.7% | 46.4% | 43.5% | 74.9% | 103% | 94.6% | 67.9% | 50.8% | 46.7% | 47.6% | 42.5% | 40.6% | 36.8% | 30.4% |
| O=C1[C@H](Cc2ccc(O)cc2)N2C(=O)CCN(C(=O)NCc3ccccc3)[C@H]2CN1Cc1cccc2ccccc12 | 86.7% | 90.8% | 85.3% | 89.4% | 87.9% | 88.1% | 85.4% | 85.5% | 91.2% | 47.9% | 85.8% | 76.6% | 84.4% | 76.3% | 83% | 88.6% | 87.7% | 83% | 74% | 84.1% | 35% | 84.2% | 77.4% | 78.2% | 80.4% | 79.5% | 85% | 82.1% | 77.3% | 75.4% | 81.1% | 33.2% | 72.5% |
| Cc1c(C)n(Cc2ccc(-c3ccccc3C(=O)O)cc2)c2ccc(C(=O)N[C@@H](C)c3ccc([N+](=O)[O-])cc3)cc12 | 103% | 105% | 102% | 107% | 103% | 109% | 109% | 120% | 114% | 25.8% | 33.6% | 101% | 104% | 102% | 96.8% | 112% | 110% | 114% | 102% | 113% | 25.2% | 25.1% | 99.6% | 97.5% | 106% | 105% | 106% | 101% | 113% | 108% | 114% | 25.5% | 20% |
| C[N]1C=C(C=N1)C2=C3\C=N/NC(=O)C4=C3C(=CC(=C4)NC(=O)[C@H](N)C5CCCCC5)[NH]2 | 103% | 103% | 99.7% | 100% | 99.7% | 103% | 94.5% | 81.1% | 65.5% | 45.1% | 12.3% | 98.4% | 101% | 99.1% | 99.9% | 97.3% | 98.5% | 92.7% | 85.3% | 61.7% | 21.8% | 7.78% | 96.2% | 98% | 95.2% | 90.5% | 94.7% | 102% | 85.4% | 79.6% | 58.8% | 18.4% | 11.5% |

Reference: the supplement of paper PMC11451515
